Laboratory results taken from patent US7262052B1, “α-2/δ gene” (Warner Lambert Company, priority 1999, dated 2007).
Where “and” joins values, the source holds several entries; their conditions need not be identical. Equal values may be shown once.

B1: α2δC: novel human α2δ-C calcium channel subunit (SEQ ID NO 5), expressed from injected cRNA (protein, listed as Homo sapiens)
chain: MAGPGSPRRASRGASALLAAALLYAALGDVVRSEQQIPLSVVKLWASAFGGEIKSIAAKYSGSQLLQKKYKEYEKDVAIEEIDGLQLVKKLAKNMEEMFHKKSEAVRRLVEAAEEAHLKHEFDADLQYEYFNAVLINERDKDGNFLELGKEFILAPNDHFNNLPVNISLSDVQVPTNMYNKDPAIVNGVYWSESLNKVFVDNFDRDPSLIWQYFGSAKGFFRQYPGIKWEPDENGVIAFDCRNRKWYIQAATSPKDVVILVDVSGSMKGLRLTIAKQTVSSILDTLGDDDFFNIIAYNEELHYVEPCLNGTLVQADRTNKEHFREHLDKLFAKGIGMLDIALNEAFNILSDFNHTGQGSICSQAIMLITDGAVDTYDTIFAKYNWPDRKVRIFTYLIGREAAFADNLKWMACANKGFFTQISTLADVQENVMEYLHVLSRPKVIDQEHDVVWTEAYIDSTLTDDQGPVLMTTVAMPVFSKQNETRSKGILLGVVGTDVPVKELLKTIPKYKLGIHGYAFAITNNGYILTHPELRLLYEEGKKRRKPNYSSVDLSEVEWEDRDDVLRNAMVNRKTGKFSMEVKKTVDKGKRVLVMTNDYYYTDIKGTPFSLGVALSRGHGKYFFRGNVTIEEGLHDLEHPDVSLADEWSYCNTDLHPEHRHLSQLEAIKLYLKGKEPLLQCDKELIQEVLFDAVVSAPIEAYWTSLALNKSENSDKGVEVAFLGTRTGLSRINLFVGAEQLTNQDFLKAGDKENIFNADHFPLWYRRAAEQIPGSFVYSIPFSTGPVNKSNVVTASTSIQLLDERKSPVVAAVGIQMKLEFFQRKFWTASRQCASLDGKCSISCDDETVNCYLIDNNGFILVSEDYTQTGDFFGEIEGAVMNKLLTMGSFKRITLYDYQAMCRANKESSDGAHGLLDPYNAFLSAVKWIMTELVLFLVEFNLCSWWHSDMTAKAQKLKQTLEPCDTEYPAFVSERTIKETTGNIACEDCSKSFVIQQIPSSNLFMVVVDSSCLCESVAPITMAPIEIRYNESLKCERLKAQKIRRRPESCHGFHPEENARECGGAPSLQAQTVLLLLPLLLMLFSR

Columns and labels:
[1] = tested on: voltage-gated Ca2+ channels (α1B, β1C subunits); experiment: Ca2+ channel currents in Xenopus oocytes injected with cRNA, two-electrode voltage clamp; type: cell-based; conditions: for increase in current compared to no α2δ subunits: co-injected with α1B and β1C in Xenopus oocytes
Method: Since α2δ-C has sequence homology to α2δ-A, and α2δ-A functions as a subunit of VSCCs, experiments were undertaken to determine if α2δ-C can replace α2δ-A and produce functional VSCCs. Xenopus oocytes were isolated using standard techniques and injected with cRNA for α1B, β1C and α2δ-C subunits of voltage-gated Ca^2+ channels. Four days to 1 week following injection of cRNA, Ca^2+ channel currents were measured using two-electrode voltage clamp with 5 mM Ba^2+ as the charge carrier. Test pulses to +10 mV from a holding membrane potential of −80 mV were applied to evoke Ca^2+ channel currents. Peak inward currents evoked during the test pulse were measured. The amplitude of inward currents is proportional to the expression level of voltage-gated Ca^2+ channels.

Human α2δ-B = target: T1, Human α2δ-B (Homo sapiens, UniProt Q9NY47); experiment: [3H]gabapentin saturation binding, membranes of transiently transfected COS-7 cells
T1 construct: transiently transfected with the full-length porcine α2δ-A, and human α2δ-B genes; expressed in transfected cells; host or cells: COS-7 cells, pcDNA3.1 vector, lipofectamine; membranes
T1 sequence (Q9NY47 19-1145 isoform Q9NY47-3 limits assumed): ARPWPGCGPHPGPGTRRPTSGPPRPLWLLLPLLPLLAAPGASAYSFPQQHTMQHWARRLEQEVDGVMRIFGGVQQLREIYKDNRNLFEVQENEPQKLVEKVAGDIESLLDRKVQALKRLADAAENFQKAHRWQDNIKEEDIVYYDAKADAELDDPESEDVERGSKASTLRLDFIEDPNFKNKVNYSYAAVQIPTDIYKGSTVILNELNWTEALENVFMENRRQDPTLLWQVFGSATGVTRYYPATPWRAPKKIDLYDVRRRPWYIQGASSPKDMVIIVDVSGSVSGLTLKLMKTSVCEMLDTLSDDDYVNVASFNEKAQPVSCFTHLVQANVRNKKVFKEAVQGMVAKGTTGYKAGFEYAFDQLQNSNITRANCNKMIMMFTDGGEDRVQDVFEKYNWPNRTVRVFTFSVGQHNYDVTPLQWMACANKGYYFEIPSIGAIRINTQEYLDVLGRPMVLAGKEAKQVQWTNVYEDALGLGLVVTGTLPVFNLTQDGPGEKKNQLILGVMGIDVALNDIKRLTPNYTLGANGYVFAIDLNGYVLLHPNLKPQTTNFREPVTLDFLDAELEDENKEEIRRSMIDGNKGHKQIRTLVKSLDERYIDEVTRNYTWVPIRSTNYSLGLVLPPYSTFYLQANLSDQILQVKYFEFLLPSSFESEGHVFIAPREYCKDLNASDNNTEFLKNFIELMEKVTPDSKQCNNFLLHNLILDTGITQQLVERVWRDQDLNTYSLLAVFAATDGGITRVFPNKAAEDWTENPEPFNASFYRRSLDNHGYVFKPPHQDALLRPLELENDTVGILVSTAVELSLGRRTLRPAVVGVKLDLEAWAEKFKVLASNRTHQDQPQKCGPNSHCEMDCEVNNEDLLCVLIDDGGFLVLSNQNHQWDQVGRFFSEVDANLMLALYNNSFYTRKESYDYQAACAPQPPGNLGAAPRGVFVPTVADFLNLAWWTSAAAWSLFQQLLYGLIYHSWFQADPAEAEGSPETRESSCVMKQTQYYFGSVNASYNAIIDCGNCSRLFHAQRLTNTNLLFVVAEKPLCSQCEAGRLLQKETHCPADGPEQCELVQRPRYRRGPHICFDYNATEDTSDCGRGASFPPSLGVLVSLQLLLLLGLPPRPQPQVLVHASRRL
From the text: […]. […] […].
The filters were then counted in a scintillation counter.

Row | Molecule | increase in current compared to no α2δ subunits [1] [fold] | Kd (Human α2δ-B; KD, single determinations (n = 2), 21° C., COS-7 membranes) | Kd (Human α2δ-B; Mean KD, mean of n = 2) [nM] | binding of [3H]gabapentin (in words) (Human α2δ-B; full-length gene product expressed transiently in COS-7) | peak inward current amplitude ([1]; co-injected with α1B and β1C, 5 mM Ba2+, test pulse to +10 mV from −80 mV, n=20, p<0.01 vs no α2δ) [nA]
1 | α2δA: known α2δ-A subunit of the voltage-sensitive calcium channel, comparator | 20 | – | – | – | –
2 | NCC1(CC(=O)O)CCCCC1 [[3H]gabapentin, gabapentin] | – | 32.6 nM and 87.2 nM | 59.9 | high affinity | –
3 | B1 | 2 | – | – | – | 213±12
